Data taken from patent publication US12440567B2, “Aqueous antibody formulation stabilized by antioxidants for parenteral administration” (AMGEN INC., priority 2007, dated 2025).

Key:
EPO binding to D11 = test: Binding of EPO to D11 monoclonal antibody after UV-B exposure of the formulation; parameters: species or system human; details: for EPO binding activity to D11 during UV-B exposure: 0.1 mM antioxidant, UV-B up to 24 hours
Experimental: For the examples below involving exposure to UVB radiation, each sample was exposed to UVB light (λ≈302 nm) for varying times, using a UVP 8W model UVLMS-38 lamp at 4° C. The formulations were then analyzed using size exclusion chromatography high pressure liquid chromatography (SEC-HPLC). Aggregation (measured via SEC-HPLC analysis) and binding (measured using CM5 gold sensor chips) were measured to determine the effect of the antioxidant on aggregation and bioactivity of the therapeutic protein. The binding activity of therapeutic protein to a ligand (e.g. to an antibody or binding partner, or, in cases where the therapeutic was an antibody, binding activity to the specific target antigen or to protein A) was determined as follows. […] The therapeutic protein-binding ligand of interest was injected until the desired immobilization level was achieved (above 5000 response units). Three different therapeutic protein-binding ligands were measured—Antibody A's target antigen, Protein A, and D11 (an antibody that binds to erythropoietin). […] The remaining activated groups were blocked with 1.0 M ethanolamine-HCl, pH 8.5. A standard curve was prepared by using native forms of the therapeutic protein of interest. Native forms of the therapeutic protein were diluted in HBS-EP buffer (pH 7.4) to concentrations between 1 and 5 μg/mL, and then injected on the column, prepared as described above to obtain a standard curve. At the end of each sample run, regeneration buffer was used to wash away any bound therapeutic protein in preparation for subsequent injections. Various UV-stressed antibody formulations were also diluted in HBS-EP buffer (pH 7.4) to a concentration within the standard curve region, and injected to quantitate the loss of bioactivity to its respective ligand-binding partner. […] The protein was exposed to the same conditions as Antibody A and Antibody B for up to 24 hours.

[1] = cited from earlier work
Antibody A (IgG1) = test: SEC-HPLC aggregation of Antibody A (IgG1) after UV-B exposure; format: physicochemical; details: for UV-B protection of Antibody A (aggregation, SEC-HPLC): Antibody A 1 mg/mL, pH 4.50 (glycolic, lactic acid) or pH 5.00 (citric acid), UV 1 hr
EPO = test: SEC-HPLC aggregation/degradation of EPO after UV-B exposure; format: physicochemical, human; details: 20 mM antioxidant; 1 mg/mL EPO, 25 mM sodium phosphate, 125 mM sodium chloride, pH 6.90; 302 nm UV-B 24 hours
Experimental: For the examples below involving exposure to UVB radiation, each sample was exposed to UVB light (λ≈302 nm) for varying times, using a UVP 8W model UVLMS-38 lamp at 4° C. The formulations were then analyzed using size exclusion chromatography high pressure liquid chromatography (SEC-HPLC). Aggregation (measured via SEC-HPLC analysis) and binding (measured using CM5 gold sensor chips) were measured to determine the effect of the antioxidant on aggregation and bioactivity of the therapeutic protein. The SEC-HPLC conditions were as follows: a G3000 TOSOH SWXL column was used and the flowrate was set at 0.5 mL/min. […] FIG. 4 (EPO), FIG. 5 (anti-streptavidin), and FIG. 6 (Antibody A) show SEC-HPLC chromatograms of each proteins following exposure to 302 nm UV-B light for 24 hours. […] Each formulation was then exposed to 302 nm UV-B light for 24 hours. The protein formulation was then analyzed using SEC-HPLC.

[2] = system: Antibody B binding to protein A; test: Binding of Antibody B to protein A after UV-B exposure of the formulation; details: 20 mM additive; pH 6.90 phosphate buffer; 0-24 hours UV-B
Experimental: For the examples below involving exposure to UVB radiation, each sample was exposed to UVB light (λ≈302 nm) for varying times, using a UVP 8W model UVLMS-38 lamp at 4° C. The formulations were then analyzed using size exclusion chromatography high pressure liquid chromatography (SEC-HPLC). Aggregation (measured via SEC-HPLC analysis) and binding (measured using CM5 gold sensor chips) were measured to determine the effect of the antioxidant on aggregation and bioactivity of the therapeutic protein.
The binding activity of therapeutic protein to a ligand (e.g. to an antibody or binding partner, or, in cases where the therapeutic was an antibody, binding activity to the specific target antigen or to protein A) was determined as follows. […] The therapeutic protein-binding ligand of interest was injected until the desired immobilization level was achieved (above 5000 response units). Three different therapeutic protein-binding ligands were measured—Antibody A's target antigen, Protein A, and D11 (an antibody that binds to erythropoietin). […] The remaining activated groups were blocked with 1.0 M ethanolamine-HCl, pH 8.5.
A standard curve was prepared by using native forms of the therapeutic protein of interest. Native forms of the therapeutic protein were diluted in HBS-EP buffer (pH 7.4) to concentrations between 1 and 5 μg/mL, and then injected on the column, prepared as described above to obtain a standard curve. At the end of each sample run, regeneration buffer was used to wash away any bound therapeutic protein in preparation for subsequent injections.
Various UV-stressed antibody formulations were also diluted in HBS-EP buffer (pH 7.4) to a concentration within the standard curve region, and injected to quantitate the loss of bioactivity to its respective ligand-binding partner.

[3] = system: Antibody A binding to protein A; test: Binding of Antibody A to protein A (CM5 sensor chip) after UV-B exposure of the formulation; details: 20 mM antioxidant; pH 5.20 acetate buffer; 302 nm UV light over 24 hours
Experimental: (§1) For the examples below involving exposure to UVB radiation, each sample was exposed to UVB light (λ≈302 nm) for varying times, using a UVP 8W model UVLMS-38 lamp at 4° C. The formulations were then analyzed using size exclusion chromatography high pressure liquid chromatography (SEC-HPLC). Aggregation (measured via SEC-HPLC analysis) and binding (measured using CM5 gold sensor chips) were measured to determine the effect of the antioxidant on aggregation and bioactivity of the therapeutic protein. The binding activity of therapeutic protein to a ligand (e.g. to an antibody or binding partner, or, in cases where the therapeutic was an antibody, binding activity to the specific target antigen or to protein A) was determined as follows. […] The therapeutic protein-binding ligand of interest was injected until the desired immobilization level was achieved (above 5000 response units). Three different therapeutic protein-binding ligands were measured—Antibody A's target antigen, Protein A, and D11 (an antibody that binds to erythropoietin). […] The remaining activated groups were blocked with 1.0 M ethanolamine-HCl, pH 8.5. […] Various UV-stressed antibody formulations were also diluted in HBS-EP buffer (pH 7.4) to a concentration within the standard curve region, and injected to quantitate the loss of bioactivity to its respective ligand-binding partner.

[4] = system: Antibody A binding to its target antigen; test: Binding of Antibody A to its target antigen (CM5 sensor chip) after UV-B exposure of the formulation; details: 20 mM antioxidant; pH 5.20 acetate buffer; 302 nm UV light over 24 hours
Experimental: as §1

[5] = system: anti-streptavidin mAb (IgG2); test: SEC-HPLC aggregation of anti-streptavidin (IgG2) after UV-B exposure; format: physicochemical; details: 20 mM antioxidant; 1 mg/mL anti-streptavidin, 10 mM sodium acetate, 5% sorbitol, pH 5.00; 302 nm UV-B 24 hours
[6] = system: anti-streptavidin (IgG2 antibody); test: Thermal aggregation of anti-streptavidin at 52° C. for 10 days; format: physicochemical; details: 5% glycerol; anti-streptavidin, 50 mM sodium acetate pH 5.00; 10 days 52° C.
Experimental: The SEC-HPLC conditions were as follows: a G3000 TOSOH SWXL column was used and the flowrate was set at 0.5 mL/min. […] Anti-streptavidin was formulated in 50 mM sodium acetate at pH 5.00. These formulations were not exposed to UV radiation but assessed on their thermal stability.

Antibody A = test: Discoloration (yellowing) of Antibody A formulations after UV-B exposure; format: physicochemical; details: 20 mM and 50 mM pyridoxine; Antibody A 30 mg/mL; UV-B 4 hours
[7] = Color change of the antioxidant upon light; format: physicochemical
From the text: P-amino benzoic acid (PABA) has a relatively powerful antioxidant effect.

[8] = 100 mM, Antibody A 1 mg/mL pH 5.00, UV 3 hours
[9] = 20 mM benzoic acid derivative, Antibody A 5 mg/mL, 20 mM sodium acetate pH 5.00, UV-B 4° C. 3 hours
[10] = 5 mM or 1 mM preservative, Antibody A 1 mg/mL pH 5.00, UV 3 hours

## CC(=O)N[C@@H](Cc1c[nH]c2ccccc12)C(=O)O (racemic) [N-acetyl-tryptophan]
EPO binding to D11; 20 mM racemic N-acetyl-tryptophan, 40 kU/mL EPO pH 6.90, UV 0 to 24 hours
  EPO activity (binding to D11) after UV-B: preserved
[1]
  solubility: more soluble than free tryptophan

## Nc1cc[nH]c(=O)n1 [Cytosine, cytosine]
Antibody A (IgG1); 25 mM cytosine (FIG. 21), Antibody A 1 mg/mL pH 5.00, UV 1, 2, or 3 hours
  aggregation of Antibody A: able to prevent aggregation

## O=C(O)CO [Glycolic acid, glycolic acid]
Antibody A (IgG1); 100 mM
  UV-B protection of Antibody A (aggregation, SEC-HPLC): most effective

## CCCOC(=O)c1cc(O)c(O)c(O)c1 [Propyl gallate, propyl gallate]
Antibody A (IgG1); 10 mM propyl gallate, pH 5.00, UV 3 hours
  aggregation of Antibody A (SEC-HPLC): able to significantly reduce the amount of aggregation

## O=C(O)/C=C/c1ccc(O)c(O)c1 [caffeic acid]
EPO binding to D11
  EPO binding activity to D11 during UV-B exposure: able to protect the EPO from degradation and preserve its binding activity

## O=C(/C=C/c1ccc(O)c(O)c1)O[C@@H]1C[C@](O)(C(=O)O)C[C@@H](O)[C@H]1O [chlorogenic acid]
EPO
  amount of aggregate of EPO (SEC-HPLC): dramatically reduced
[2]
  binding of Antibody B to protein A after UV-B exposure: prevented UV-B induced degradation
[3]
  binding of Antibody A to protein A after UV exposure: preserved
[4]
  binding of Antibody A to its target antigen after UV exposure: preserved
[5]
  amount of aggregate of anti-streptavidin (SEC-HPLC): dramatically reduced
EPO binding to D11; 20 mM antioxidant, up to 24 hours UV
  binding of EPO to D11 mAb after UV light exposure: able to significantly preserve
Antibody A (IgG1); 20 mM antioxidant, 1 mg/mL Antibody A, 10 mM sodium acetate, 9% sucrose, pH 5.20, 302 nm UV-B 24 hours
  amount of aggregate of Antibody A (SEC-HPLC): dramatically reduced

## O=C(O)CC(O)(CC(=O)O)C(=O)O [citric acid]
Antibody A (IgG1); 100 mM
  UV-B protection of Antibody A (aggregation, SEC-HPLC): fairly weak

## Oc1cc(O)c2c(c1)O[C@H](c1ccc(O)c(O)c1)[C@H](O)C2 [epicatechin]
[1]
  solubility: limited solubility

## O=C(O)/C=C/C(=O)O [fumaric acid]
Antibody A (IgG1); [8]
  aggregation of Antibody A (SEC-HPLC): able to protect Antibody A from aggregation

## O=C(O)c1cc(O)c(O)c(O)c1 [gallic acid]
Antibody A (IgG1); [9]
  aggregation of Antibody A (SEC-HPLC): able to significantly decrease the amount of aggregation

## OCC(O)CO [glycerol]
[6]
  effect of added glycerol on thermal aggregation caused by ferulic and coumaric acid: counter-acted that thermal aggregation

## Cc1cccc(O)c1 [m-cresol]
Antibody A (IgG1); [10]
  aggregation of Antibody A (SEC-HPLC): able to significantly decrease the amount of aggregation

## O=C(O)c1ccc(O)cc1 [p-hydroxybenzoic acid]
Antibody A (IgG1); [9]
  aggregation of Antibody A (SEC-HPLC): able to significantly decrease the amount of aggregation

## Oc1ccccc1 [phenol]
Antibody A (IgG1); [10]
  aggregation of Antibody A (SEC-HPLC): able to significantly decrease the amount of aggregation

## O=C(O)c1ccc(O)c(O)c1 [protocatechuic acid]
Antibody A (IgG1); [9]
  aggregation of Antibody A (SEC-HPLC): able to significantly decrease the amount of aggregation

## Cc1ncc(CO)c(CO)c1O [pyridoxine]
Antibody A
  appearance of formulation upon exposure to UV radiation: caused the formulation to appear yellow
[7]
  color change upon light: changes to an orange-brown color upon light
Antibody A (IgG1); 20 mM and 50 mM pyridoxine, Antibody A 30 mg/mL, UV-B 4 hours
  oxidation and aggregation of Antibody A: did protect the protein from oxidation and aggregation
[1]
  solubility: highly soluble

## O=C(O)C1=C[C@@H](O)[C@@H](O)[C@H](O)C1 [shikimic acid]
Antibody A (IgG1); [8]
  aggregation of Antibody A (SEC-HPLC): able to protect Antibody A from aggregation

## COc1cc(/C=C/C(=O)O)cc(OC)c1O [sinapic acid]
EPO binding to D11
  EPO binding activity to D11 during UV-B exposure: able to protect the EPO from degradation and preserve its binding activity

## COc1cc(O)c(C(=O)c2ccccc2)cc1S(=O)(=O)O [sulisobenzone]
EPO binding to D11; 5 mM sulisobenzone, EPO 40 kU/mL, pH 6.90, UV 0-8 hours at 4° C.
  EPO binding to D11 after UV: able to protect EPO binding to D11

## COc1cc(C(=O)O)cc(OC)c1O [syringic acid]
Antibody A (IgG1); [9]
  aggregation of Antibody A (SEC-HPLC): able to significantly decrease the amount of aggregation

## COc1cc(C(=O)O)ccc1O [vanillic acid]
Antibody A (IgG1); [9]
  aggregation of Antibody A (SEC-HPLC): able to significantly decrease the amount of aggregation

## catechin
EPO binding to D11; 20 mM catechin, EPO 40 kU/mL, 25 mM sodium phosphate, 125 mM sodium chloride, 0.005% Tween-80, pH 6.90, UV 0-8 hours
  percent binding of EPO to D11 after UV: able to preserve EPO binding
